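Each compound was tested at five concentrations against cells in 96-well plates for 48 hours. GI50 = concentration required for 50% inhibition of growth.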 Active and inactive are the calls of the source. No stated cut-off is given here; in the data, active = GI50 up to about 1.1 µM and inactive = higher.
Experiments:
Test in all cases: DTP human tumour cell line panel, 48 h
[1] = system: T47D
[2] = system: NCI-H460
[3] = system: KM12
[4] = system: MDA-N
[5] = system: CCRF-CEM
[6] = system: OVCAR-4
[7] = system: CAKI-1
[8] = system: SK-MEL-5
[9] = system: OVCAR-3
[10] = system: SF-295
[11] = system: MDA-MB-435
[12] = system: UACC-257
[13] = system: SF-539
[14] = system: DU-145
[15] = system: HOP-92
[16] = system: MCF7
[17] = system: Malme-3M
[18] = system: NCI-H23
[19] = system: MDA-MB-231
[20] = system: HCC 2998

SMILES | GI50 [1] | GI50 [2] | GI50 [3] | GI50 [4] | GI50 [5] | GI50 [6] | GI50 [7] | GI50 [8] | GI50 [9] | GI50 [10] | GI50 [11] | GI50 [12] | GI50 [13] | GI50 [14] | GI50 [15] | GI50 [16] | GI50 [17] | GI50 [18] | GI50 [19] | GI50 [20]
Cn1c(=S)c2nc(SCCCc3ccccc3)[nH]c2n(C)c1=O | 14.6 µM (inactive) | 7.14 µM (inactive) | 19.5 µM (inactive) | 21.8 µM (inactive) | 6.59 µM (inactive) | 13 µM (inactive) | 20.9 µM (inactive) | 6.67 µM (inactive) | 20.9 µM (inactive) | 11.4 µM (inactive) | 23.2 µM (inactive) | 8.24 µM (inactive) | 27.9 µM (inactive) | 36.1 µM (inactive) | 78.3 µM (inactive) | 22.1 µM (inactive) | 62.1 µM (inactive) | 16.7 µM (inactive) | 42.5 µM (inactive) | –
O=C1Nc2ccccc2/C1=N/Nc1ccccc1Cl | 12.5 µM (inactive) | 18.2 µM (inactive) | 63.1 µM (inactive) | 95.5 µM (inactive) | 45.9 µM (inactive) | 3.57 µM (inactive) | 15.7 µM (inactive) | 68.5 µM (inactive) | 26.6 µM (inactive) | 32.1 µM (inactive) | > 100 µM (inactive) | 35.3 µM (inactive) | 29 µM (inactive) | 70 µM (inactive) | – | > 100 µM (inactive) | 77.3 µM (inactive) | 42.8 µM (inactive) | 10.3 µM (inactive) | 81.1 µM (inactive)
Cc1ccc(C2(C)CC/C(=N/N=C3/CCC(C)(c4ccc(C)c(C)c4)c4cc(C)c(C)cc43)c3cc(C)c(C)cc32)cc1C (stereo not drawn) | > 100 µM (inactive) | > 100 µM (inactive) | > 100 µM (inactive) | > 100 µM (inactive) | – | > 100 µM (inactive) | > 100 µM (inactive) | > 100 µM (inactive) | > 100 µM (inactive) | > 100 µM (inactive) | > 100 µM (inactive) | – | > 100 µM (inactive) | > 100 µM (inactive) | > 100 µM (inactive) | > 100 µM (inactive) | > 100 µM (inactive) | > 100 µM (inactive) | > 100 µM (inactive) | –
COc1ccc2oc(=O)c3c(c2c1C)OC(C)(C)C=C3 | > 100 µM (inactive) | > 100 µM (inactive) | > 100 µM (inactive) | > 100 µM (inactive) | > 100 µM (inactive) | – | > 100 µM (inactive) | > 100 µM (inactive) | > 100 µM (inactive) | > 100 µM (inactive) | > 100 µM (inactive) | > 100 µM (inactive) | > 100 µM (inactive) | > 100 µM (inactive) | – | > 100 µM (inactive) | > 100 µM (inactive) | > 100 µM (inactive) | > 100 µM (inactive) | > 100 µM (inactive)
CN(C)CCCN1c2ccccc2CCc2cc([N+](=O)[O-])ccc21 | 17.1 µM (inactive) | 15 µM (inactive) | 17.5 µM (inactive) | 15 µM (inactive) | – | 17.7 µM (inactive) | 15.5 µM (inactive) | 12.9 µM (inactive) | 17.9 µM (inactive) | 14.5 µM (inactive) | 15.8 µM (inactive) | 15 µM (inactive) | 15.1 µM (inactive) | 18.2 µM (inactive) | – | 16.8 µM (inactive) | 17.7 µM (inactive) | 19 µM (inactive) | 14.9 µM (inactive) | 12.2 µM (inactive)
COC(=O)[C@@]1(Cc2ccc(O)cc2)C[C@@H]2Cc3ccccc3N2N1 | 23.5 µM (inactive) | – | > 100 µM (inactive) | 44.8 µM (inactive) | – | > 100 µM (inactive) | > 100 µM (inactive) | 34.5 µM (inactive) | > 100 µM (inactive) | 49.1 µM (inactive) | > 100 µM (inactive) | 23.3 µM (inactive) | > 100 µM (inactive) | > 100 µM (inactive) | 43.6 µM (inactive) | 63.2 µM (inactive) | 49 µM (inactive) | 56.9 µM (inactive) | 49.1 µM (inactive) | –
CSc1c(C(=O)Nc2ccccc2)c(N)nn1-c1ccccc1 | > 100 µM (inactive) | > 100 µM (inactive) | > 100 µM (inactive) | > 100 µM (inactive) | > 100 µM (inactive) | > 100 µM (inactive) | > 100 µM (inactive) | > 100 µM (inactive) | > 100 µM (inactive) | – | > 100 µM (inactive) | > 100 µM (inactive) | > 100 µM (inactive) | > 100 µM (inactive) | – | > 100 µM (inactive) | > 100 µM (inactive) | > 100 µM (inactive) | > 100 µM (inactive) | > 100 µM (inactive)
O=C1C=CN(C2OC(CO)C(O)C2O)C(=O)C1 (stereo not drawn) | 173 µM (inactive) | 0.942 µM (active) | – | 62.5 µM (inactive) | 6.87 µM (inactive) | – | 22.3 µM (inactive) | – | 692 µM (inactive) | – | 161 µM (inactive) | 1130 µM (inactive) | 91.6 µM (inactive) | 9.38 µM (inactive) | – | 7.76 µM (inactive) | – | – | 363 µM (inactive) | –
CCOP(=O)(O)CN1CCNCCN(CP(=O)(O)OCC)CCNCC1 | > 100 µM (inactive) | > 100 µM (inactive) | > 100 µM (inactive) | > 100 µM (inactive) | > 100 µM (inactive) | > 100 µM (inactive) | > 100 µM (inactive) | > 100 µM (inactive) | > 100 µM (inactive) | > 100 µM (inactive) | > 100 µM (inactive) | > 100 µM (inactive) | > 100 µM (inactive) | > 100 µM (inactive) | > 100 µM (inactive) | > 100 µM (inactive) | – | – | > 100 µM (inactive) | –
CC(C)C(C/C=C1\CC(CO)(COC(=O)c2ccccc2)OC1=O)C(C)C (stereo not drawn) | 93.8 µM (inactive) | 15.8 µM (inactive) | 17.5 µM (inactive) | 21.2 µM (inactive) | 12.1 µM (inactive) | 18.8 µM (inactive) | 18.7 µM (inactive) | 10.4 µM (inactive) | 21.2 µM (inactive) | 14.5 µM (inactive) | 84.9 µM (inactive) | 27.6 µM (inactive) | – | – | 13.4 µM (inactive) | 20.9 µM (inactive) | 16.8 µM (inactive) | 20.2 µM (inactive) | 21.3 µM (inactive) | 22.4 µM (inactive)
COc1cc2c(c(OC)c1)[C@H](C)N(Cc1ccccc1)C(C)C2 (stereo partly drawn) | 45.9 µM (inactive) | 11 µM (inactive) | 30.2 µM (inactive) | > 10 µM (inactive) | 36.6 µM (inactive) | – | 64.9 µM (inactive) | 25.4 µM (inactive) | – | 16.3 µM (inactive) | 16.3 µM (inactive) | 67.8 µM (inactive) | 16.6 µM (inactive) | > 100 µM (inactive) | – | 42.2 µM (inactive) | 62.4 µM (inactive) | 95.3 µM (inactive) | 36.3 µM (inactive) | 33 µM (inactive)
Cc1c(-c2ccccc2)[nH]n(C2=NCCN2)c1=O | > 100 µM (inactive) | 78.7 µM (inactive) | > 100 µM (inactive) | > 100 µM (inactive) | > 100 µM (inactive) | > 100 µM (inactive) | > 100 µM (inactive) | > 100 µM (inactive) | > 100 µM (inactive) | > 100 µM (inactive) | > 100 µM (inactive) | > 100 µM (inactive) | > 100 µM (inactive) | – | > 100 µM (inactive) | > 100 µM (inactive) | 41 µM (inactive) | > 100 µM (inactive) | > 100 µM (inactive) | –

From ChEMBL document CHEMBL1201862, “PubChem BioAssay data set” (2004)
